Data taken from ChEMBL document CHEMBL1201862, “PubChem BioAssay data set” (2004).
Activity calls are given as the source filed them.

What was measured:
[1] = target: T1, Tyrosine-protein phosphatase non-receptor type 22 (Homo sapiens, UniProt Q9Y2R2); type: functional
T1 sequence (Q9Y2R2 whole entry): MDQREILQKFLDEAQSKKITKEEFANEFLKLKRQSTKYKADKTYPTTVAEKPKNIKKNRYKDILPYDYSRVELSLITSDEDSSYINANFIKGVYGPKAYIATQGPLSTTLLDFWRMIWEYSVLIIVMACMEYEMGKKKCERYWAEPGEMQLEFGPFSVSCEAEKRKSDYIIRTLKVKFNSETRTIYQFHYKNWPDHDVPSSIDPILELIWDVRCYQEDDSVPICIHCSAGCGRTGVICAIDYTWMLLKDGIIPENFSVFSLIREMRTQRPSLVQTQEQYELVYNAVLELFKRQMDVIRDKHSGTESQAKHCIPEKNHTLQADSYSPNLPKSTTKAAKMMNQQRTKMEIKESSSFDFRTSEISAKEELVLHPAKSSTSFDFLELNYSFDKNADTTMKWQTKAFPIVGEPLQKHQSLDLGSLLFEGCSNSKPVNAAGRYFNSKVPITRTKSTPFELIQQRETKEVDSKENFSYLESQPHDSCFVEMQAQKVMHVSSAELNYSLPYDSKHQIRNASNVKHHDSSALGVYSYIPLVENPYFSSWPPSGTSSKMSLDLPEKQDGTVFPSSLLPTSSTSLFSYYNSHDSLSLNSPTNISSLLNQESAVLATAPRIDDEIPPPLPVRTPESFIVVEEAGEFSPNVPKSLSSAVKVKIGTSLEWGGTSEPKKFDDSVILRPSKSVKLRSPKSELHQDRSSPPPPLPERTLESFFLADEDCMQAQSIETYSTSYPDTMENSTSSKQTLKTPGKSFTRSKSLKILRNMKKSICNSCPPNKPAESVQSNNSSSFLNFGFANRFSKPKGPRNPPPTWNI

[2] = target: T1, Tyrosine-protein phosphatase non-receptor type 22; type: functional; remark: listed apart in the source
[3] = target: T2, Tyrosine-protein phosphatase non-receptor type 7 (Homo sapiens, UniProt P35236); type: functional
T2 sequence (P35236 whole entry): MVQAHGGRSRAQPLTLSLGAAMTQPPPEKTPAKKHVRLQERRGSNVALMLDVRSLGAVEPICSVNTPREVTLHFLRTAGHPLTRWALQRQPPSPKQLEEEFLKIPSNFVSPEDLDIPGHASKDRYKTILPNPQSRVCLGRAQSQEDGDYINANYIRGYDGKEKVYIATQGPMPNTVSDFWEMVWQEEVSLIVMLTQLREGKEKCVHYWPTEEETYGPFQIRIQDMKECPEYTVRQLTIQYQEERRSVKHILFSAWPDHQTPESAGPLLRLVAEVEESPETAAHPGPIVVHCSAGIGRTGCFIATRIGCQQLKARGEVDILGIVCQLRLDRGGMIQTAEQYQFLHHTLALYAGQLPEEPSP

[4] = target: Lysine-specific demethylase 4C (Homo sapiens, UniProt Q9H3R0); assay: inhibition of JMJD2C H3K9me3 demethylation – biochemical, DELFIA europium, cherry-picked samples, dose response (AID 488835); type: functional
Sequence of Lysine-specific demethylase 4C (Q9H3R0 whole entry): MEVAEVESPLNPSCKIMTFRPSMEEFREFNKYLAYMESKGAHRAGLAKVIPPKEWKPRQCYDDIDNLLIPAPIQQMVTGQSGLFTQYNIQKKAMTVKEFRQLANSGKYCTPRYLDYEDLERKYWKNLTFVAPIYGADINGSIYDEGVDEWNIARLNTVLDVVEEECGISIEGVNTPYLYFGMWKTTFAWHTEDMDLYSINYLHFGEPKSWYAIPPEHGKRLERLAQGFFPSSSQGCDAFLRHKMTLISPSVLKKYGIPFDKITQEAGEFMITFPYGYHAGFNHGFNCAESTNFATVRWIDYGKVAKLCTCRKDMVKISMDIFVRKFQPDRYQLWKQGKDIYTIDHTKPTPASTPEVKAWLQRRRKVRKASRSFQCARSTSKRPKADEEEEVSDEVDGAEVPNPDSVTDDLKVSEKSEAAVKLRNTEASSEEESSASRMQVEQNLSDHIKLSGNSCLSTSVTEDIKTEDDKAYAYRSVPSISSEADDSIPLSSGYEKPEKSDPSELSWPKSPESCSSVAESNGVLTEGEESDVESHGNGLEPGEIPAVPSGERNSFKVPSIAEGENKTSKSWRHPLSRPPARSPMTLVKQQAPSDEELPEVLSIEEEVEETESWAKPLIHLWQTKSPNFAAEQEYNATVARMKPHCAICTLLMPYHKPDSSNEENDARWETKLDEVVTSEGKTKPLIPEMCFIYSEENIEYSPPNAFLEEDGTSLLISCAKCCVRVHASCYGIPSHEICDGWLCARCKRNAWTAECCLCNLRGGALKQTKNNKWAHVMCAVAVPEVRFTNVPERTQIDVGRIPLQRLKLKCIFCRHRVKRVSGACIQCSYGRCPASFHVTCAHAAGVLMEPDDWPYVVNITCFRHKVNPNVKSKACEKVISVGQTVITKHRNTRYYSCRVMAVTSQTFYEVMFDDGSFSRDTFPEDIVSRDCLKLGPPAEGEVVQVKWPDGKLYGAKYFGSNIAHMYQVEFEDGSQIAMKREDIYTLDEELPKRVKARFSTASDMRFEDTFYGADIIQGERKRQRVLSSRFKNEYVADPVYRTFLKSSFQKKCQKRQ

[5] = target: Lysine-specific demethylase 4A (Homo sapiens, UniProt O75164); assay: inhibition of JMJD2A H3K9me3 demethylation – biochemical, DELFIA europium, cherry-picked samples, selectivity assay for GASC-1 inhibitor project, dose response (AID 488840)
Sequence of Lysine-specific demethylase 4A (O75164 whole entry): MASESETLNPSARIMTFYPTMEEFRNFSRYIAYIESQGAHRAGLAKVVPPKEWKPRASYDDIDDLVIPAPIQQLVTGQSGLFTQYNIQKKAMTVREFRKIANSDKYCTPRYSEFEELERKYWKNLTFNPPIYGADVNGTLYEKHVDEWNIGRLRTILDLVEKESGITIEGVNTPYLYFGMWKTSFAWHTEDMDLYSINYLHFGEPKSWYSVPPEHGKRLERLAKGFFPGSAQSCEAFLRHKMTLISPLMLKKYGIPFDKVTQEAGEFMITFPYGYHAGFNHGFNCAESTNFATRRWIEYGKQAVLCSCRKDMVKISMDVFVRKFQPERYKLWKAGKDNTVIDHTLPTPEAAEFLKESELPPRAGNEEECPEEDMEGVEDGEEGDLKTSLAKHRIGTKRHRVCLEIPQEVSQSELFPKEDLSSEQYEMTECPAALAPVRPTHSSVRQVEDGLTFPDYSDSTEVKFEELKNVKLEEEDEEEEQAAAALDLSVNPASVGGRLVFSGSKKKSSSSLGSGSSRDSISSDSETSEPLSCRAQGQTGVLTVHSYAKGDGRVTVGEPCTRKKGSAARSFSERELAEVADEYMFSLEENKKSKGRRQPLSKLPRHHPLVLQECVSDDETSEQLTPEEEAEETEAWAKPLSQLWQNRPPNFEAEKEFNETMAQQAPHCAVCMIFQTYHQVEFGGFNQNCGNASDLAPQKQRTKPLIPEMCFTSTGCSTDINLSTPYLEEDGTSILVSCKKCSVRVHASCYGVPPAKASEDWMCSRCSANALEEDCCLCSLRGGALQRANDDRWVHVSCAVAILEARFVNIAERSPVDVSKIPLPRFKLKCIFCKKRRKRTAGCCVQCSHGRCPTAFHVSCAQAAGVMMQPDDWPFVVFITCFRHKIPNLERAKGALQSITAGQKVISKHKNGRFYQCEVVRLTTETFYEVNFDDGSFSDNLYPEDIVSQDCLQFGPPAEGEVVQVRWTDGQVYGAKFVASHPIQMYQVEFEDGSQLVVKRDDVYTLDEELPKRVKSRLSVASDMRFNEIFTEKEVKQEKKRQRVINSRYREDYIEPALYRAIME

[6] = target: SUMO E1/E2 (Homo sapiens, UniProt P63279+Q9UBE0+Q9UBT2); assay: SAR analysis of SUMOylation using HTRF in an in-Vitro dose response assay. [Related pubchem assays (depositor defined):AID2006, AID2011, AID2018, AID2069, AID2658]; type: functional
Sequence of SUMO E1/E2 (Q9UBE0 whole entry): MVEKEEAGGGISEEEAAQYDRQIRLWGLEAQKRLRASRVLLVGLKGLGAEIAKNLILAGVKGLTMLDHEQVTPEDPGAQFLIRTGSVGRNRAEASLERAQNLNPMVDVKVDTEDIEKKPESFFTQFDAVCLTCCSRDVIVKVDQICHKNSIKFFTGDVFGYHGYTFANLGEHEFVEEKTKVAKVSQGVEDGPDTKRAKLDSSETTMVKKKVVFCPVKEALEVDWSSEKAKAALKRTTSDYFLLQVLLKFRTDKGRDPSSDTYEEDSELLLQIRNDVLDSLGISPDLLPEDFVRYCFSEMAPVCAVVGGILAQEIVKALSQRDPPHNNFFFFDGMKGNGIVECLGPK
Sequence of SUMO E1/E2 (Q9UBT2 whole entry): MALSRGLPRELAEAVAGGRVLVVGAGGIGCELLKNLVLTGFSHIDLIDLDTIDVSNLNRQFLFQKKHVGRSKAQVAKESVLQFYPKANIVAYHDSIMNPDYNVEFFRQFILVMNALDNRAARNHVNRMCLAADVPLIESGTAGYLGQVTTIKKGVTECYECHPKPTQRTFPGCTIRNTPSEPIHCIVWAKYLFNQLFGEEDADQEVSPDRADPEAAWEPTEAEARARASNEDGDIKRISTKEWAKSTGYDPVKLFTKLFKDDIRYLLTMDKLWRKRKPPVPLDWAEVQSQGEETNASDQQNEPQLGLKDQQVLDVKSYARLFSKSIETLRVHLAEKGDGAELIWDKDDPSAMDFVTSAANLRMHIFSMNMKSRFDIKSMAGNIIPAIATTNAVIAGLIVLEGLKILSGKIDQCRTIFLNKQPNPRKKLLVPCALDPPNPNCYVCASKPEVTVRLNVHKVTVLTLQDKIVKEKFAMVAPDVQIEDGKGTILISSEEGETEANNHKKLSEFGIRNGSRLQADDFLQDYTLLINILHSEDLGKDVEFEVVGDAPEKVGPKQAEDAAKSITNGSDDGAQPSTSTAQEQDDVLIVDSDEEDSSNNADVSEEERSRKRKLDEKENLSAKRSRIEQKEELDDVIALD
Sequence of SUMO E1/E2 (P63279 whole entry): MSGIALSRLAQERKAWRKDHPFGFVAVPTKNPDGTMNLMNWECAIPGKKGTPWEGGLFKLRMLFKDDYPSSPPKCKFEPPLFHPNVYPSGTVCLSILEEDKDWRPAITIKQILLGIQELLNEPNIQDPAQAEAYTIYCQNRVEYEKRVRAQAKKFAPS

[7] = target: CAAX prenyl protease 2 (Homo sapiens, UniProt Q9Y256); assay: inhibition of Ras-converting CAAX protease Rce1 – biochemical, yeast membranes, quenched-peptide fluorescence, cherry-pick, dose response (AID 588849)
Sequence of CAAX prenyl protease 2 (Q9Y256 whole entry): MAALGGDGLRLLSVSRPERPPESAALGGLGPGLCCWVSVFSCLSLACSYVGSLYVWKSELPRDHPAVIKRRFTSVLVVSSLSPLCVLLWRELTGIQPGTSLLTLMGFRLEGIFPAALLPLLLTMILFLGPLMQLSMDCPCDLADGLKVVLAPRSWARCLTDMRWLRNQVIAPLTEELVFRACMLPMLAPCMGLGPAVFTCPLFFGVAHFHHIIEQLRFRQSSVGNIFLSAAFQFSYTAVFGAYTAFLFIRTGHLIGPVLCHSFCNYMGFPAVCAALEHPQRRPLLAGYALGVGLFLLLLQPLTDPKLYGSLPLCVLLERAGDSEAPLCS

[8] = target: T3, Zinc finger protein mex-5 (Caenorhabditis elegans, UniProt Q9XUB2); assay: potency of MEX-5 RNA-binding blockers – biochemical, C. elegans, fluorescence polarization, dose response (AID 1960)
T3 sequence (Q9XUB2 whole entry): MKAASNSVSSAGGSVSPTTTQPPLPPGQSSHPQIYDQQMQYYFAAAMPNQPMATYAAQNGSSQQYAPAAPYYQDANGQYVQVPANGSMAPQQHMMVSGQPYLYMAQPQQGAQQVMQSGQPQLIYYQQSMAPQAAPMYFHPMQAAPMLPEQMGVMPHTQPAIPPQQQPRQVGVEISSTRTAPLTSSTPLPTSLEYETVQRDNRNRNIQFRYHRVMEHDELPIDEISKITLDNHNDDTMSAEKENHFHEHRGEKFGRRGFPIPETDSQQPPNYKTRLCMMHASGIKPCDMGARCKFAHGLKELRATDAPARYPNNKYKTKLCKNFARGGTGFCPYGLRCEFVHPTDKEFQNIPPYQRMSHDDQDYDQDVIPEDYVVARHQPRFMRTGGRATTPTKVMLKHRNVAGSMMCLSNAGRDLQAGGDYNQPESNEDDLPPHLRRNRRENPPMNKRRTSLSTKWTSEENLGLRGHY

[9] = target: Sphingosine 1-phosphate receptor 1 (Homo sapiens, UniProt P21453); assay: Fluorescence-based counterscreen assay for S1P4 agonists: Cell-based dose response high throughput screening assay to identify agonists of the Sphingosine 1-Phosphate Receptor 1 (S1P1). [Related pubchem assays (depositor defined):AID1509, AID1523, AID1801, AID463107, AID463118, AID463119, AID463122, AID463123, AID463129, AID463225, AID504400, AID504460]; type: functional
Sequence of Sphingosine 1-phosphate receptor 1 (P21453 whole entry): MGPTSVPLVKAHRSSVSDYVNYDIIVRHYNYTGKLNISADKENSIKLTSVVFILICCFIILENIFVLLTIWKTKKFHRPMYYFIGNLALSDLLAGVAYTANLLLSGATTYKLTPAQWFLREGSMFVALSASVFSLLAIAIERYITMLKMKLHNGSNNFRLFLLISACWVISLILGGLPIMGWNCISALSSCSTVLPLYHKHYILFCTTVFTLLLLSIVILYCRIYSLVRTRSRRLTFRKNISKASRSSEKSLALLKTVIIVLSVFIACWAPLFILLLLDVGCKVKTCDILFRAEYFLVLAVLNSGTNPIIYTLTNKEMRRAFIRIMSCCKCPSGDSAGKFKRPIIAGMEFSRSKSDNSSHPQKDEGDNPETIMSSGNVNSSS

[10] = target: T4, Insulin-degrading enzyme (Homo sapiens, UniProt P14735); assay: Dose Response: Fluorescence polarization-based cell-based high throughput dose response assay for inhibitors of insulin-degrading enzyme (IDE). [Related pubchem assays: 434962 (Primary screen (IDE inhibitors in singlicate)), 449730 (Counterscreen (Cytotoxicity in triplicate)), 435028 (Confirmation (IDE inhibitors in triplicate)), 434984 (Summary …; type: functional
T4 sequence (P14735 whole entry): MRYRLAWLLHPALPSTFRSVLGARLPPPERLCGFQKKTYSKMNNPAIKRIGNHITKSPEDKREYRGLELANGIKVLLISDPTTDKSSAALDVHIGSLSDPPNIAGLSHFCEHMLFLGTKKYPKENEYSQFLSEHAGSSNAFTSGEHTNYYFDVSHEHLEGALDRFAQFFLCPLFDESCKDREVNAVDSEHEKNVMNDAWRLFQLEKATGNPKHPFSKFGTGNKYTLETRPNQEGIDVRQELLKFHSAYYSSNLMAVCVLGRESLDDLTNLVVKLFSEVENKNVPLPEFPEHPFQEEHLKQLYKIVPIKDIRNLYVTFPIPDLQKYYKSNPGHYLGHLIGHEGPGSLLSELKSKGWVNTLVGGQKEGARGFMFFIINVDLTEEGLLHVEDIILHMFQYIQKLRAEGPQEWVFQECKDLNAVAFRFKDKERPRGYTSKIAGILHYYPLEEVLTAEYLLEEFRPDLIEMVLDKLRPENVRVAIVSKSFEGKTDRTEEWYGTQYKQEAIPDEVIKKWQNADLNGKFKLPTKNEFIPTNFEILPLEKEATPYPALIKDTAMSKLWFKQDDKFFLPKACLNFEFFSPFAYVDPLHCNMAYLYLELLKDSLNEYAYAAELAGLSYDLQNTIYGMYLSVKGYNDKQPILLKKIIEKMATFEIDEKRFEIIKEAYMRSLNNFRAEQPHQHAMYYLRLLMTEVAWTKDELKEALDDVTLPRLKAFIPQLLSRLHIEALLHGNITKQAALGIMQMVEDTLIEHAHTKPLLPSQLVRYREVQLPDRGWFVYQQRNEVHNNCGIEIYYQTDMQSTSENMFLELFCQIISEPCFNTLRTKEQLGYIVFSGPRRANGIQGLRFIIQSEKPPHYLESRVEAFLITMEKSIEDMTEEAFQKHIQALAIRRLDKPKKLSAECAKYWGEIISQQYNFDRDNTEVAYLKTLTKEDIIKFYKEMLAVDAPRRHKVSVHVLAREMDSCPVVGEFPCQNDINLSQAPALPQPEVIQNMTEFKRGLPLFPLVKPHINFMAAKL

[11] = Counterscreen for IDE inhibitors: Luminescence-based cell-based high throughput dose response assay to identify compounds that are cytotoxic to HEK cells. [Related pubchem assays: 434962 (Primary screen (IDE inhibitors in singlicate)), 449730 (Counterscreen (Cytotoxicity in triplicate)), 435028 (Confirmation (IDE inhibitors in triplicate)) …; type: functional; conditions: HEK293
[12] = target: T5, Sphingosine 1-phosphate receptor 4 (Homo sapiens, UniProt O95977); assay: Fluorescence dose response cell-based high throughput screening assay for agonists of the Sphingosine 1-Phosphate Receptor 4 (S1P4). [Related pubchem assays: 1509 (Primary screen.), 1523 (Confirmation screen in triplicates.)]; type: functional
T5 sequence (O95977 whole entry): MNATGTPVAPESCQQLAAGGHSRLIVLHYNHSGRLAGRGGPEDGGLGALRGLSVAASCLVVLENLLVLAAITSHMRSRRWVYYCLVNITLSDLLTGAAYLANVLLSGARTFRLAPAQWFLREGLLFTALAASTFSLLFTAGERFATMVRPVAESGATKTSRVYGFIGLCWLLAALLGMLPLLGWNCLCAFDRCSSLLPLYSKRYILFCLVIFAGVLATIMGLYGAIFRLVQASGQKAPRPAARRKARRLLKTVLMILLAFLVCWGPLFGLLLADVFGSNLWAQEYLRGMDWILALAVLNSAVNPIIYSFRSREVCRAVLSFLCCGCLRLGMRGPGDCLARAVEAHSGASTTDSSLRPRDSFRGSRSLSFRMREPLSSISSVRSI

[13] = target: T6, RNA-binding protein pos-1 (Caenorhabditis elegans, UniProt G5EF15); assay: disruptors of C. elegans POS-1 RNA interaction – biochemical, fluorescence polarization, dose response (AID 1964);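 also: purified POS-1 fused to maltose binding protein made in E. coli; potency of compounds blocking POS-1 binding to fluorescent RNA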
T6 sequence (G5EF15 whole entry): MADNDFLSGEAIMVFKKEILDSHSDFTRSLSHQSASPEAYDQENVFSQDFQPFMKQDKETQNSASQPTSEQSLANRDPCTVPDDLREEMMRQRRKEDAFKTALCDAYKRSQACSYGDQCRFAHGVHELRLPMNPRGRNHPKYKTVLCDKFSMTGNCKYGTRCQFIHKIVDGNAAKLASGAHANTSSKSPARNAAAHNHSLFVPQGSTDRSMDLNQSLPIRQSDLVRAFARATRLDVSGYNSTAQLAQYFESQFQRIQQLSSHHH

[14] = Luminescence Cell-Based Dose Response HTS to Identify Inhibitors of 5'UTR Stem-Loop Driven Prion Protein mRNA Translation in H4 Neuroglioblastoma Cells. [Related pubchem assays: 1827 (Project Summary), 1813 (Primary HTS)]; type: functional
[15] = Vero E6 cell cytotoxicity, dose response, cytotoxicity control for non-replicating M. tuberculosis project, secondary assay (AID 492998); type: functional, VeroE6; conditions: Vero C1008
[16] = HepG2 cell cytotoxicity, dose response, cytotoxicity control for non-replicating M. tuberculosis project (AID 489018); type: functional; conditions: Mycobacterium tuberculosis
[17] = THP-1 cell cytotoxicity, dose response, cytotoxicity control for non-replicating M. tuberculosis project (AID 489025); type: functional
[18] = MIN6 cell viability loss – mouse insulinoma, cytotoxicity control, dose response (AID 2122); type: functional;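 also: confirmatory high-throughput counterscreen run to flag cytotoxic compounds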
[19] = decrease of insulin promoter-GFP reporter – imaging, high-content screening, mouse beta cells (AID 1628); type: functional; conditions: MIN6
[20] = alpha-synuclein stem-loop luciferase translation blockers – H4 neuroglioma cells, luminescence, confirmation (AID 1988); type: functional, cell-based
[21] = tested on: BJ; assay: cells; type: functional, cell-based; conditions: Homo sapiens
[22] = tested on: BJ; assay: BJ-TERT fibroblast viability loss – cell-based, RAS-independent, luminescence, dose response (AID 1933); type: functional; conditions: Homo sapiens
[23] = HEK-293T viability loss after treatment – luminescence, T-cell screen hits, cytotoxicity control for TCR NF-kB inhibitor project, dose response (AID 489026); type: functional, cell-based;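 also: cells exposed to compound about 14 hours before the viability readout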
[24] = luciferase reporter signal suppression in cells – H4 neuroglioma cells, luminescence, dose response (AID 1990); type: functional, cell-based
[25] = tested on: BJ; assay: BJ-TERT-LT-ST fibroblast viability loss – cell-based, RAS-independent, luminescence, dose response (AID 1935); type: functional; conditions: Homo sapiens;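 also: BJ fibroblasts immortalized with TERT plus LT and ST oncogenes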
[26] = cells; type: functional
[27] = DRD fibroblast viability loss – cell-based, non-viral oncogenic, luminescence, dose response (AID 1934); type: functional; conditions: Homo sapiens

Structure (SMILES): Cc1ccc(N2CCN(CCCCN3C(=O)C4CCCN4C3=O)CC2)cc1 (configuration not stated)
- IC50 [1]: > 79.4 µM (inactive)
- IC50 [2]: > 79.4 µM (inactive)
- IC50 [3]: > 79.4 µM (inactive)

Structure (SMILES): COc1ccccc1NC(=O)COC(=O)c1nc(O)nc(O)c1N
- AC50 [4]: 6.73 µM (active)
- AC50 [5]: 8.34 µM (active)

Structure (SMILES): CC(=NOCc1nc2ccccc2c(=O)n1N=Cc1cc([N+](=O)[O-])ccc1O)c1ccccc1
- IC50 [6]: 27 µM (active)

Structure (SMILES): COc1ccc(C2CC(c3cccs3)=NN2c2ccc(C=O)cc2)cc1 (configuration not stated)
- AC50 [7]: 8.53 µM (active)
- EC50 [8]: 24.6 µM (active)
- EC50 [9]: 12.5 µM (inactive)
- IC50 [10]: > 55.9 µM (not active)
- IC50 [11]: 41.2 µM (not active)
- EC50 [12]: 8.63 µM (active)
- EC50 [13]: 18.3 µM (active)

Structure (SMILES): COc1ccc(Nc2cc(C)nc(-n3nc(C)cc3C)n2)cc1
- EC50 [14]: 0.142 µM (active)
- CC50 [15]: 1.41 µM (active)
- CC50 [16]: > 20 µM (active)
- CC50 [17]: 0.201 µM (active)
- IC50 [18]: < 0.25 µM (active)
- IC50 [19]: 2.54 µM (active)
- EC50 [20]: < 0.195 µM (active)
- EC50 [21]: 0.973 µM (active)
- EC50 [22]: 0.625 µM (active)
- IC50 [23]: > 80 µM (inactive)
- EC50 [24]: 0.266 µM (active)
- EC50 [25]: 0.388 µM (inconclusive)
- IC50 [26]: 0.38 µM (active)
- EC50 [27]: 0.4 µM (active)
